Test results reported in the kinase profiling compilation of Christmann-Franck et al. (2016).

Tests used:
Experiment in all cases: KINOMEscan competition binding
Details in all cases: compound 10.0 µM
AAK1 (human) = AAK1 (human) (UniProt Q2M2I8)
CAMK1G (human) = CAMK1G (human) (UniProt Q96NX5)
AXL (human) = AXL (human) (UniProt P30530)
LATS1 (human) = LATS1 (human) (UniProt O95835)
CDK9 (human) = CDK9 (human) (UniProt P50750)
MAP2K2 (human) = MAP2K2 (human) (UniProt P36507)
TNNI3K (human) = TNNI3K (human) (UniProt Q59H18)
PAK1 (human) = PAK1 (human) (UniProt Q13153)
PRKX (human) = PRKX (human) (UniProt P51817)
RET (human) = RET (human) (UniProt P07949)
FGFR4 (human) = FGFR4 (human) (UniProt P22455)
RPS6KA3 KD1 (human) = RPS6KA3 KD1 (human) (UniProt P51812)
PIP4K2B (human) = PIP4K2B (human) (UniProt P78356)
RPS6KA2 KD2 (human) = RPS6KA2 KD2 (human) (UniProt Q15349)
MAP4K5 (human) = MAP4K5 (human) (UniProt Q9Y4K4)
LYN (human) = LYN (human) (UniProt P07948)
NUAK1 (human) = NUAK1 (human) (UniProt O60285)
EPHA5 (human) = EPHA5 (human) (UniProt P54756)
MAP3K12 (human) = MAP3K12 (human) (UniProt Q12852)
TAOK1 (human) = TAOK1 (human) (UniProt Q7L7X3)
MAP3K4 (human) = MAP3K4 (human) (UniProt Q9Y6R4)
MAPK11 (human) = MAPK11 (human) (UniProt Q15759)
MAPK8 (human) = MAPK8 (human) (UniProt P45983)
[1] = biological target: JAK1 JH1 catalytic (human) (UniProt P23458)
ABL2 (human) = ABL2 (human) (UniProt P42684)
ACVR1 (human) = ACVR1 (human) (UniProt Q04771)
TNIK (human) = TNIK (human) (UniProt Q9UKE5)
CDC2L2 (human) = CDC2L2 (human) (UniProt Q9UQ88)
YES1 (human) = YES1 (human) (UniProt P07947)
[2] = test system: FLT3 (human), P36888 [N841I]
MST1R (human) = MST1R (human) (UniProt Q04912)
SRPK3 (human) = SRPK3 (human) (UniProt Q9UPE1)
STK32B (human) = STK32B (human) (UniProt Q9NY57)
CSNK1A1L (human) = CSNK1A1L (human) (UniProt Q8N752)
MAP3K3 (human) = MAP3K3 (human) (UniProt Q99759)
SIK2 (human) = SIK2 (human) (UniProt Q9H0K1)
PIK3C2B (human) = PIK3C2B (human) (UniProt O00750)
CSNK1G1 (human) = CSNK1G1 (human) (UniProt Q9HCP0)
GSK3A (human) = GSK3A (human) (UniProt P49840)
PRKACA (human) = PRKACA (human) (UniProt P17612)

Sequence of MAP3K3 (human) (Q99759 whole entry, looked up): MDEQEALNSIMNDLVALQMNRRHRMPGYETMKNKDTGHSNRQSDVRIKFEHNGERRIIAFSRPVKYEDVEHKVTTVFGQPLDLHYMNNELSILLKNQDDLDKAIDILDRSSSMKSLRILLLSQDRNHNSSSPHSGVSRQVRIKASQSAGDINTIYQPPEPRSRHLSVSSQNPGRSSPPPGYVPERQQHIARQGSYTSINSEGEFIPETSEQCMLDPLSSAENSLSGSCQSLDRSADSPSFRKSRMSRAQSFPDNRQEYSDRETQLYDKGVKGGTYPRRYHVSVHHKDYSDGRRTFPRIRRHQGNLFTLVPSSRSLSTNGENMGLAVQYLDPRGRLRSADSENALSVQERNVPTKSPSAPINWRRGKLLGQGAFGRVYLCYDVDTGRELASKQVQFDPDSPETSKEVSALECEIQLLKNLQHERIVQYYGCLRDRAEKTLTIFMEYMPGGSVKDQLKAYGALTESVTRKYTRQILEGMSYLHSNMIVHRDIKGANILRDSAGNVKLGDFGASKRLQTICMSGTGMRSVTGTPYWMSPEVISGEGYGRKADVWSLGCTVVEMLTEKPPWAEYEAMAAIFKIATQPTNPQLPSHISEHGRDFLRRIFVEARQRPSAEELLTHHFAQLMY
Sequence of MAPK11 (human) (Q15759 whole entry, looked up): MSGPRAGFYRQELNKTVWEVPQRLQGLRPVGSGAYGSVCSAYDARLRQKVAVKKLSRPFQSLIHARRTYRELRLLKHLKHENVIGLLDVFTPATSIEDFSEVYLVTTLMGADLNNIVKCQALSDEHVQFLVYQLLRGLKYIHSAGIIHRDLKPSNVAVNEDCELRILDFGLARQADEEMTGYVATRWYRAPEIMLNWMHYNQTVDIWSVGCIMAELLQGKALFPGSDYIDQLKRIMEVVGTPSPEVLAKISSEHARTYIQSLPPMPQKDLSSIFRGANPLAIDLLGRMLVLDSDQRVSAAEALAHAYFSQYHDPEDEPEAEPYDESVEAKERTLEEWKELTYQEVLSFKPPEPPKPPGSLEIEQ
Sequence of LYN (human) (P07948 whole entry, looked up): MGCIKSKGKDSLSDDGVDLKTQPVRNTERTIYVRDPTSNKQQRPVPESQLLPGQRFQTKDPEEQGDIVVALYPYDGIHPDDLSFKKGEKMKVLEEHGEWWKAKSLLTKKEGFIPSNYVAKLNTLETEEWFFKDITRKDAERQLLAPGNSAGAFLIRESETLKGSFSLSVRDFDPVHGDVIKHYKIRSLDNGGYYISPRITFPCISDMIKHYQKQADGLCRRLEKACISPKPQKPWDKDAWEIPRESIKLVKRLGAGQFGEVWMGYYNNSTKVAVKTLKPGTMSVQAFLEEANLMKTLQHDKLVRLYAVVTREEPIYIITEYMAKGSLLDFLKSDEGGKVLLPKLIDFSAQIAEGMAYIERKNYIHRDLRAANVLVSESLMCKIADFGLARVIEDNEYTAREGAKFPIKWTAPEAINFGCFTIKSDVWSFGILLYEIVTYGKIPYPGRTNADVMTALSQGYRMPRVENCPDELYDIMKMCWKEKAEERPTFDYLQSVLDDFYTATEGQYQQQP
Sequence of RET (human) (P07949 whole entry, looked up): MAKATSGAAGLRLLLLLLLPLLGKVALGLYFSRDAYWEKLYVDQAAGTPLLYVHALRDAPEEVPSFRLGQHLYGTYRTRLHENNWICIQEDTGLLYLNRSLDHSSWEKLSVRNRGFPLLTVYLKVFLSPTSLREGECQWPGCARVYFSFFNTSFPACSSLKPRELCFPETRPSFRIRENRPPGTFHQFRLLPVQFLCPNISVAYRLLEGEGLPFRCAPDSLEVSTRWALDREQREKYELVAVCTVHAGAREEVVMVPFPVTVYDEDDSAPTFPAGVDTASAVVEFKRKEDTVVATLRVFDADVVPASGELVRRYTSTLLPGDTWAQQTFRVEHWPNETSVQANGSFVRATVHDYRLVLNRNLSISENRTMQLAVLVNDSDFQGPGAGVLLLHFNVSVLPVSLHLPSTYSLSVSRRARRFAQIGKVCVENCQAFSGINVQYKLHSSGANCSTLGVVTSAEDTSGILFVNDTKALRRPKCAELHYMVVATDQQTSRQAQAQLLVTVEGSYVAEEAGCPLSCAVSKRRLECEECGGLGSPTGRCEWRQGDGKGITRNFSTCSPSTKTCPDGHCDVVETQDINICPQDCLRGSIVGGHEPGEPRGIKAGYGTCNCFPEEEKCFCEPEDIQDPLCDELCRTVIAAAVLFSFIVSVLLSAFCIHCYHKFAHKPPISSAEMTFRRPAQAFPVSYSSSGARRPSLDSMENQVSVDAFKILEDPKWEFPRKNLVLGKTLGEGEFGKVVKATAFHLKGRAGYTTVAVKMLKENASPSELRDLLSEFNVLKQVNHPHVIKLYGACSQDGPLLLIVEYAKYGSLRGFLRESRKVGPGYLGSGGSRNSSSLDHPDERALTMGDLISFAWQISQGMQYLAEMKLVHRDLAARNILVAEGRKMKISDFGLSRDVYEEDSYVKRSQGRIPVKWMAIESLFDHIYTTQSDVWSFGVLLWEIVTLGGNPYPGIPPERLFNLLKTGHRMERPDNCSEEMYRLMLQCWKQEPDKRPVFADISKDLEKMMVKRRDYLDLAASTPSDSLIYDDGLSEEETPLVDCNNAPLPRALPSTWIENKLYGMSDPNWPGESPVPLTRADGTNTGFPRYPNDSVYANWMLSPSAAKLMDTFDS
Sequence of AAK1 (human) (Q2M2I8 whole entry, looked up): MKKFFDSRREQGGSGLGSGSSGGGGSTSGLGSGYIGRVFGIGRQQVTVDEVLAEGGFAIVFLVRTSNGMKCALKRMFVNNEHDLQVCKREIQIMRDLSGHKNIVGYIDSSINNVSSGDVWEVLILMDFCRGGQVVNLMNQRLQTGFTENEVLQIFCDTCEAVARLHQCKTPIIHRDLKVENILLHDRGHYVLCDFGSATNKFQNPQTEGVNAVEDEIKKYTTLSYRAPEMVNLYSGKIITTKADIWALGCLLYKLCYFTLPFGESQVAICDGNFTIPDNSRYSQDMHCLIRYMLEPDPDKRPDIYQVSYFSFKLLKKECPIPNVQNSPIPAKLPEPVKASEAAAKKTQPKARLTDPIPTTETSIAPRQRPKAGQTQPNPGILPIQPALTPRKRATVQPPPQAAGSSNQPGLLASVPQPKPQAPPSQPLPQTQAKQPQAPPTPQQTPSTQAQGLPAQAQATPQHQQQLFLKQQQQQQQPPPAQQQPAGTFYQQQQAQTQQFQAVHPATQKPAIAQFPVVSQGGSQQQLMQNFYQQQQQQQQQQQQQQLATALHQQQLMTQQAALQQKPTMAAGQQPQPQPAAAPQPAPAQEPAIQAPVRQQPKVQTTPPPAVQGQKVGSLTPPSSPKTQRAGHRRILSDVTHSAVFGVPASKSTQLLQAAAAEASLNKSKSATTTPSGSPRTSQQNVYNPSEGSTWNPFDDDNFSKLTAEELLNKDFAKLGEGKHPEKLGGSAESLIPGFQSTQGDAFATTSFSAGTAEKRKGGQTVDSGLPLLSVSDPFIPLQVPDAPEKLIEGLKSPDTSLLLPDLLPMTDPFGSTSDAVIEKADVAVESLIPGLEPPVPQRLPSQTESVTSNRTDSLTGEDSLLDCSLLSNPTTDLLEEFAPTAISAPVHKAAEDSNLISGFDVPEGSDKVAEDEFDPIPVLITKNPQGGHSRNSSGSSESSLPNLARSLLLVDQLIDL
Sequence of RPS6KA3 KD1 (human) (P51812 whole entry, looked up): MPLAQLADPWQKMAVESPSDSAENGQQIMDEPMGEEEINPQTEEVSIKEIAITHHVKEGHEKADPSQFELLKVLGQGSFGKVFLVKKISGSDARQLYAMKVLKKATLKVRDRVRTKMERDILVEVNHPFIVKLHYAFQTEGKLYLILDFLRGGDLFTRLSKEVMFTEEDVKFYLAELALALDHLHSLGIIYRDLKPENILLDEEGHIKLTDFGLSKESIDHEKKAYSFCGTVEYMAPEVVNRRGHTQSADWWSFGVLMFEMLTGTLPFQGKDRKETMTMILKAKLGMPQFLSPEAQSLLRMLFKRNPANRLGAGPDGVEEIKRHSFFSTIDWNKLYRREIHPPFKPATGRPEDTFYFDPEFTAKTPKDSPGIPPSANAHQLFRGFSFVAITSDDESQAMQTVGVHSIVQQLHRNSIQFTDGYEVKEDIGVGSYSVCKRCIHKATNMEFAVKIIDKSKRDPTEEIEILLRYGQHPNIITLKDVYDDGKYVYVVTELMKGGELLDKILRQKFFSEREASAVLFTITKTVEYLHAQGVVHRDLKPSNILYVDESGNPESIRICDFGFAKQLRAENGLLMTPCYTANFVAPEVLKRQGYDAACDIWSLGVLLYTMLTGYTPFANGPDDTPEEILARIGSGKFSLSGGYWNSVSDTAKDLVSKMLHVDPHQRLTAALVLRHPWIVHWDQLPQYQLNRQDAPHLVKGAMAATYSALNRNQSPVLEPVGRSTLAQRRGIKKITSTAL
Sequence of PAK1 (human) (Q13153 whole entry, looked up): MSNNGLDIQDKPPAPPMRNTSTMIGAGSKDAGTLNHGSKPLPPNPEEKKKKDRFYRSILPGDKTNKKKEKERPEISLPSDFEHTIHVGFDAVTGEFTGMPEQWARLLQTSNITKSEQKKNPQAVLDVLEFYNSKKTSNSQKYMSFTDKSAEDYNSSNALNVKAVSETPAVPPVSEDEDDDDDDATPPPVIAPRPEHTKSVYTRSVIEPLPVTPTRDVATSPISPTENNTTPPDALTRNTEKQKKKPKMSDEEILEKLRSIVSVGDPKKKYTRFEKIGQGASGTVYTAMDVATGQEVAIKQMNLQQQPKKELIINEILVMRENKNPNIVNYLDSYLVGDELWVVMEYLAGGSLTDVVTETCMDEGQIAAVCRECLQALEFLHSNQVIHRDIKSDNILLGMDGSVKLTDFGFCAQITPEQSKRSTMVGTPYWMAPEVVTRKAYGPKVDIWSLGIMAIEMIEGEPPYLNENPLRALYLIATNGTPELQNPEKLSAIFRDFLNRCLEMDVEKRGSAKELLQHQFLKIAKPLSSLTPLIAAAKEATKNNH

Structure (SMILES) | kinase still bound, per cent of control (AAK1 (human)) [%] | kinase still bound, per cent of control (CAMK1G (human)) [%] | kinase still bound, per cent of control (AXL (human)) [%] | kinase still bound, per cent of control (LATS1 (human)) [%] | kinase still bound, per cent of control (CDK9 (human)) [%] | kinase still bound, per cent of control (MAP2K2 (human)) [%] | kinase still bound, per cent of control (TNNI3K (human)) [%] | kinase still bound, per cent of control (PAK1 (human)) [%] | kinase still bound, per cent of control (PRKX (human)) [%] | kinase still bound, per cent of control (RET (human)) [%] | kinase still bound, per cent of control (FGFR4 (human)) [%] | kinase still bound, per cent of control (RPS6KA3 KD1 (human)) [%] | kinase still bound, per cent of control (PIP4K2B (human)) [%] | kinase still bound, per cent of control (RPS6KA2 KD2 (human)) [%] | kinase still bound, per cent of control (MAP4K5 (human)) [%] | kinase still bound, per cent of control (LYN (human)) [%] | kinase still bound, per cent of control (NUAK1 (human)) [%] | kinase still bound, per cent of control (EPHA5 (human)) [%] | kinase still bound, per cent of control (MAP3K12 (human)) [%] | kinase still bound, per cent of control (TAOK1 (human)) [%] | also measured
COc1cc(C(=O)NC2CCN(C)CC2)ccc1Nc1ncc2c(n1)N(C1CCCC1)C(C)CC(=O)N2C (stereo not given) | 100 | 100 | 100 | 100 | 100 | 100 | 100 | 100 | 100 | 100 | 100 | 100 | 100 | 5.8 | 100 | 100 | 100 | 100 | 100 | 100 | kinase still bound, per cent of control (MAP3K4 (human)): 100%; kinase still bound, per cent of control (MAPK11 (human)): 100%; kinase still bound, per cent of control (MAPK8 (human)): 100%; kinase still bound, per cent of control [1]: 100%; kinase still bound, per cent of control (ABL2 (human)): 100%; kinase still bound, per cent of control (ACVR1 (human)): 100%; kinase still bound, per cent of control (TNIK (human)): 100%; kinase still bound, per cent of control (CDC2L2 (human)): 100%; kinase still bound, per cent of control (YES1 (human)): 100%; kinase still bound, per cent of control [2]: 100%; kinase still bound, per cent of control (MST1R (human)): 100%; kinase still bound, per cent of control (SRPK3 (human)): 100%; kinase still bound, per cent of control (STK32B (human)): 100%; kinase still bound, per cent of control (CSNK1A1L (human)): 100%; kinase still bound, per cent of control (MAP3K3 (human)): 100%; kinase still bound, per cent of control (SIK2 (human)): 100%; kinase still bound, per cent of control (PIK3C2B (human)): 100%; kinase still bound, per cent of control (CSNK1G1 (human)): 100%; kinase still bound, per cent of control (GSK3A (human)): 100%; kinase still bound, per cent of control (PRKACA (human)): 100%
Cc1ccc(NC(=O)c2cccc(C(C)(C)C#N)c2)cc1Nc1ccc2ncn(C)c(=O)c2c1 | 100 | 100 | 75 | 100 | 100 | 100 | 15 | 100 | 100 | 0.15 | 100 | 90 | 100 | 84 | 59 | 0.3 | 100 | 1 | 74 | 91 | kinase still bound, per cent of control (MAP3K4 (human)): 100%; kinase still bound, per cent of control (MAPK11 (human)): 0%; kinase still bound, per cent of control (MAPK8 (human)): 100%; kinase still bound, per cent of control [1]: 100%; kinase still bound, per cent of control (ABL2 (human)): 12%; kinase still bound, per cent of control (ACVR1 (human)): 100%; kinase still bound, per cent of control (TNIK (human)): 3.4%; kinase still bound, per cent of control (CDC2L2 (human)): 5.4%; kinase still bound, per cent of control (YES1 (human)): 4.6%; kinase still bound, per cent of control [2]: 62%; kinase still bound, per cent of control (MST1R (human)): 100%; kinase still bound, per cent of control (SRPK3 (human)): 100%; kinase still bound, per cent of control (STK32B (human)): 100%; kinase still bound, per cent of control (CSNK1A1L (human)): 100%; kinase still bound, per cent of control (MAP3K3 (human)): 100%; kinase still bound, per cent of control (SIK2 (human)): 77%; kinase still bound, per cent of control (PIK3C2B (human)): 100%; kinase still bound, per cent of control (CSNK1G1 (human)): 88%; kinase still bound, per cent of control (GSK3A (human)): 100%; kinase still bound, per cent of control (PRKACA (human)): 100%
COc1cc(C(=O)NC2CCN(C)CC2)ccc1Nc1ncc2c(n1)N(C1CCCC1)CCC(=O)N2C(C)C | 100 | 100 | 100 | 100 | 100 | 100 | 100 | 100 | 100 | 100 | 100 | 100 | 100 | 100 | 100 | 100 | 100 | 100 | 100 | 100 | kinase still bound, per cent of control (MAP3K4 (human)): 100%; kinase still bound, per cent of control (MAPK11 (human)): 100%; kinase still bound, per cent of control (MAPK8 (human)): 100%; kinase still bound, per cent of control [1]: 100%; kinase still bound, per cent of control (ABL2 (human)): 100%; kinase still bound, per cent of control (ACVR1 (human)): 100%; kinase still bound, per cent of control (TNIK (human)): 100%; kinase still bound, per cent of control (CDC2L2 (human)): 100%; kinase still bound, per cent of control (YES1 (human)): 100%; kinase still bound, per cent of control [2]: 100%; kinase still bound, per cent of control (MST1R (human)): 100%; kinase still bound, per cent of control (SRPK3 (human)): 100%; kinase still bound, per cent of control (STK32B (human)): 100%; kinase still bound, per cent of control (CSNK1A1L (human)): 100%; kinase still bound, per cent of control (MAP3K3 (human)): 100%; kinase still bound, per cent of control (SIK2 (human)): 100%; kinase still bound, per cent of control (PIK3C2B (human)): 100%; kinase still bound, per cent of control (CSNK1G1 (human)): 100%; kinase still bound, per cent of control (GSK3A (human)): 100%; kinase still bound, per cent of control (PRKACA (human)): 100%
